The subject of this assay is invasive stage IIA-IIIB breast adenocarcinoma. In words: CA163-080 phase II trial: pathologic complete response (pCR) in the breast after neoadjuvant ixabepilone, Sataloff classification. The format is in vivo, human. As for the experimental part:
CA163-080 (080 trial) is an exploratory genomic phase II study that was conducted in breast cancer patients who received ixabepilone as a neoadjuvant treatment. The primary objective of this study was to identify predictive markers of response to ixabepilone through gene expression profiling of pre-treatment breast cancer biopsies. Patients with invasive stage IIA-IIIB breast adenocarcinoma (tumor size ≧3 cm diameter) received 40 mg/m^2 ixabepilone as a 3-hour infusion on Day for up to four 21-day cycles, followed by surgery within 3-4 weeks of completion of chemotherapy. A total of 164 patients were enrolled in this study. Biopsies for gene expression analysis were obtained both pre- and post-treatment. Upon isolation of biopsies from the patients, samples were either snap frozen in liquid nitrogen or placed into RNAlater solution overnight, followed by removal from the RNAlater solution. All samples were kept at −70° C. until use.
Pathological response was assessed using the Sataloff classification system (D. Sataloff et al., J. Am. Coll. Surg., 180(3):297-306 (1995)) and used as an end point for the pharmacogenomic analysis. The pathologic response was evaluated in the primary tumor site at the end of treatment and prior to surgery by assessing histologic changes compared with baseline as following: At the primary tumor site, cellular modifications were evaluated in both the infiltrating tumoral component and in the possible ductal component, to determine viable residual infiltrating component (% of total tumoral mass); residual ductal component (% of total tumoral mass); the mitotic index. Pathologic Complete Response (pCR) in the breast only was defined as T-A, Total or near total therapeutic effect in primary site. […] The response rate was defined as the number of responders divided by the number of treated patients.
Based on the definition of Pathology Complete Response (pCR), there are 23 responders and 111 non-responders in the 080 trial. Estrogen receptor 1 (ER) was previously found to be the best single-gene predictor with negative prediction value (NPV) 92% and positive prediction value (PPV) 37%, as described in PCT Publication No. ______ (PCT Application No. PCT/US2005/043261).
The data were based on the 080 trial. Patients' ER and PR status were determined by IHC assay.

The mark [1] stands for this setting: 134 patients of the genomic dataset, 080 trial.
Where [2] appears, read: ER− group of the genomic dataset.

The structures appear in SMILES notation.

In the case of `C/C(=C\c1csc(C)n1)[C@@H]1C[C@@H]2O[C@]2(C)CCC[C@H](C)[C@H](O)[C@@H](C)C(=O)C(C)(C)[C@@H](O)CC(=O)N1` [ixabepilone], the “number of non-responders (no pCR)” value reads like this: under setting [1], 111; under setting [2], 37. The “number of responders (pCR)” value amounted to 23 under setting [1] and 18 under setting [2]. The pCR response rate is listed as 4/62 = 6% (ER+ PR+ patients (IHC), 080 trial); 4/15 = 26.7% (ER+ PR− patients (IHC), 080 trial); 0/9 = 0% (ER− PR+ patients (IHC), 080 trial); 20/61 = 33% (ER− PR− patients (IHC), 40 mg/m^2 3-hour infusion, up to four 21-day cycles, 080 trial); 8/77 = 10.4% (all ER+ patients (IHC), 080 trial); 20/70 = 29% (all ER− patients (IHC), 080 trial). Also, the pCR response rate (all PR+ patients (IHC), 080 trial) is 4/71 = 5.6%; the pCR response rate (all PR− patients (IHC), 080 trial) is recorded as 24/76 = 31.5%; the pCR response rate entry (overall, all patients with ER and PR status, 080 trial) is recorded as “Overall: 18%”.
